Results published in ChEMBL document CHEMBL3991601, “The target landscape of clinical kinase drugs” (Science, 2017).
Structures can show the parent of a compound that is named as a salt. The source made the active and inactive calls. For most assays here, no stated cut-off is given here; in the data, actives have a measured Kd and inactives only a lower limit.

What was measured:
[1] = target: T1, Peroxisomal acyl-coenzyme A oxidase 1 (Homo sapiens, UniProt Q15067)
T1 sequence (Q15067 whole entry): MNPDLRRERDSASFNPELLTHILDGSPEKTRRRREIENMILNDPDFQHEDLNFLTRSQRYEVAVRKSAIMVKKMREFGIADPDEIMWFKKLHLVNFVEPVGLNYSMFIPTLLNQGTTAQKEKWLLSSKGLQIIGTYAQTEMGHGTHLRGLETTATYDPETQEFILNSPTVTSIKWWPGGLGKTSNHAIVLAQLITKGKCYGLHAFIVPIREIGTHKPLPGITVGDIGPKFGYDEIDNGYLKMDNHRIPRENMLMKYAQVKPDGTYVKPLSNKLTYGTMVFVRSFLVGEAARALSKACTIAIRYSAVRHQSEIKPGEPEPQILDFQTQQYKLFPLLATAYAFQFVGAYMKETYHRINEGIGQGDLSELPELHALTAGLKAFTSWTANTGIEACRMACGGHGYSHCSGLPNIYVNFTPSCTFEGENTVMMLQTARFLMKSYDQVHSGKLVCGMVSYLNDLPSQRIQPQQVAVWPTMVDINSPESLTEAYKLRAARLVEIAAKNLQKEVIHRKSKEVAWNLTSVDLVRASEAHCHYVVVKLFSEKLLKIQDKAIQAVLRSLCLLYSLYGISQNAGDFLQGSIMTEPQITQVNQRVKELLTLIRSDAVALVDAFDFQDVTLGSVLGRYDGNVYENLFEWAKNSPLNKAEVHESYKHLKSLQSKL

[2] = target: T2, Bone morphogenetic protein receptor type-2 (Homo sapiens, UniProt Q13873)
T2 sequence (Q13873 whole entry): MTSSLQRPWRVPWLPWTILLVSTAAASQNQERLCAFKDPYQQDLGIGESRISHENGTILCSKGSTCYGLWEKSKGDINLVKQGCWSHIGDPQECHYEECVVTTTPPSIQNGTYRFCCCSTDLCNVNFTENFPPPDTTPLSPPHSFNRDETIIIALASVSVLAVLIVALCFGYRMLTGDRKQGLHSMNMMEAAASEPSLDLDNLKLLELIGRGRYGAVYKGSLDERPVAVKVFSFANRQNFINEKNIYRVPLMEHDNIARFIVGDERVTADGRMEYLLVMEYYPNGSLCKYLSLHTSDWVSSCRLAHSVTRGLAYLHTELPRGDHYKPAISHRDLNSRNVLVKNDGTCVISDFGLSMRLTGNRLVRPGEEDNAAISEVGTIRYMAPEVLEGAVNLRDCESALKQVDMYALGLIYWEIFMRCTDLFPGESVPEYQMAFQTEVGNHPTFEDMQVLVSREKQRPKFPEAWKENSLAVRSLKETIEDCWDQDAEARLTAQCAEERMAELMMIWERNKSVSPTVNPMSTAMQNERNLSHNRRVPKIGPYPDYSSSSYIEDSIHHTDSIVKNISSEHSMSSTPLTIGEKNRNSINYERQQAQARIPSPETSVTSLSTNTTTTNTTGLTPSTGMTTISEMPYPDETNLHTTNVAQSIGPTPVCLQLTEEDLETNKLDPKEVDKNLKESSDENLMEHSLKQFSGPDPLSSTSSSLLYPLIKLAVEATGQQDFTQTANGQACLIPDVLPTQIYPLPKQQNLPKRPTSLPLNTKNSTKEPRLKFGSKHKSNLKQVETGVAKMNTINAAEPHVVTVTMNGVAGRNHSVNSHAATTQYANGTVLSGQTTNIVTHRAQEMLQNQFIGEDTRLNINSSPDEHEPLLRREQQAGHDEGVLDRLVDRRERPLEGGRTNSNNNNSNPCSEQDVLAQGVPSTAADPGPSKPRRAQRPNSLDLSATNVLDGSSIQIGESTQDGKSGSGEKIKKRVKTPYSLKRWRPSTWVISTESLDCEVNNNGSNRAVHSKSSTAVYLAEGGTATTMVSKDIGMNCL

[3] = target: Chromodomain-helicase-DNA-binding protein 4 (Homo sapiens, UniProt Q14839)
[4] = target: Casein kinase I isoform alpha (Homo sapiens, UniProt P48729)
[5] = target: Epithelial discoidin domain-containing receptor 1 (Homo sapiens, UniProt Q08345)
[6] = target: DnaJ homolog subfamily A member 1 (Homo sapiens, UniProt P31689)
[7] = target: Mitogen-activated protein kinase kinase kinase 1 (Homo sapiens, UniProt Q13233)
[8] = target: Mitogen-activated protein kinase kinase kinase kinase 1 (Homo sapiens, UniProt Q92918)
[9] = target: Ribosomal protein S6 kinase alpha-3 (Homo sapiens, UniProt P51812)
[10] = target: Wee1-like protein kinase (Homo sapiens, UniProt P30291)
[11] = target: T3, Adenine phosphoribosyltransferase (Homo sapiens, UniProt P07741)
T3 sequence (P07741 whole entry): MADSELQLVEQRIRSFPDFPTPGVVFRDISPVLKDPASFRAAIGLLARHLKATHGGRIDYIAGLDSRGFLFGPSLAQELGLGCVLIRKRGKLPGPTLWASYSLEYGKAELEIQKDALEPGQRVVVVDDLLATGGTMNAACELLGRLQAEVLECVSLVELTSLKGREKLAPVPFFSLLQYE

Chain of Mitogen-activated protein kinase kinase kinase 1 (Q13233 whole entry): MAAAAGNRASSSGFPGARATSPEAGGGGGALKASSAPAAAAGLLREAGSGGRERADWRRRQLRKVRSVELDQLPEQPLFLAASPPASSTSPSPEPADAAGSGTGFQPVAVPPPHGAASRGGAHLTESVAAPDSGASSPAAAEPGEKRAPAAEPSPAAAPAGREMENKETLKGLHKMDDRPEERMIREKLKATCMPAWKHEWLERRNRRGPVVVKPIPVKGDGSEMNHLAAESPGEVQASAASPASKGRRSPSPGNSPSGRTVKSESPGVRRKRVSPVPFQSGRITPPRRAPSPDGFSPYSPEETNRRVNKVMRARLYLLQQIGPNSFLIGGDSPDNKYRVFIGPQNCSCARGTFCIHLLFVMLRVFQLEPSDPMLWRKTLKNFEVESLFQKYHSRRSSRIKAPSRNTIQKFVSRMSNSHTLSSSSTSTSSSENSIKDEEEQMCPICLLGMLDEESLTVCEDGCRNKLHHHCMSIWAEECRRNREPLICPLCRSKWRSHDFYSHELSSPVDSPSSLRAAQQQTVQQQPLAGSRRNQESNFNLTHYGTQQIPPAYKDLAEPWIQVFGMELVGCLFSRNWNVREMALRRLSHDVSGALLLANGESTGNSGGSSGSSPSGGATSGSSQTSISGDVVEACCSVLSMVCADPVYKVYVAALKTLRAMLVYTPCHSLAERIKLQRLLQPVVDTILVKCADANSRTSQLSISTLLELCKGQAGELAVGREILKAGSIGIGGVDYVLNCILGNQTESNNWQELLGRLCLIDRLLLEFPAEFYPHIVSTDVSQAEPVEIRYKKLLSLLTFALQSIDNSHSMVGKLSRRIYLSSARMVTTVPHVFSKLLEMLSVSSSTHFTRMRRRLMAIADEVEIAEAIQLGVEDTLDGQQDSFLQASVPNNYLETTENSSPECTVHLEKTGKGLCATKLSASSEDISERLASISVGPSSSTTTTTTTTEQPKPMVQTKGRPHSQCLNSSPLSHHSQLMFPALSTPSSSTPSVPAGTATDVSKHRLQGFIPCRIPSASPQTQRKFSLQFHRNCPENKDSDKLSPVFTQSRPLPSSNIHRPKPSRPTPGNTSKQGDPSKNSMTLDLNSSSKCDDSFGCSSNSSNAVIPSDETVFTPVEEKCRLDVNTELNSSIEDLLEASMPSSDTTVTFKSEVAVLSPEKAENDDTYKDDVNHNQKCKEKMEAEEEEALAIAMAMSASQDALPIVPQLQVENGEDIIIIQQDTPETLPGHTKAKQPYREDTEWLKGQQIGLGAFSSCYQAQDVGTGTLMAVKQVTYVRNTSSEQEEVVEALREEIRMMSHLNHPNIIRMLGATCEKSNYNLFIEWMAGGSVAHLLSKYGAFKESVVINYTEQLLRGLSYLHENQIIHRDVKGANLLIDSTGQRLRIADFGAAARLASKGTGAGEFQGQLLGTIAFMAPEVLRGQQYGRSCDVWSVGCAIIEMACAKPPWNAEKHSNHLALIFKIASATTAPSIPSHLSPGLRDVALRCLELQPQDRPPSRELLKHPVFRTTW
Chain of Mitogen-activated protein kinase kinase kinase kinase 1 (Q92918 whole entry): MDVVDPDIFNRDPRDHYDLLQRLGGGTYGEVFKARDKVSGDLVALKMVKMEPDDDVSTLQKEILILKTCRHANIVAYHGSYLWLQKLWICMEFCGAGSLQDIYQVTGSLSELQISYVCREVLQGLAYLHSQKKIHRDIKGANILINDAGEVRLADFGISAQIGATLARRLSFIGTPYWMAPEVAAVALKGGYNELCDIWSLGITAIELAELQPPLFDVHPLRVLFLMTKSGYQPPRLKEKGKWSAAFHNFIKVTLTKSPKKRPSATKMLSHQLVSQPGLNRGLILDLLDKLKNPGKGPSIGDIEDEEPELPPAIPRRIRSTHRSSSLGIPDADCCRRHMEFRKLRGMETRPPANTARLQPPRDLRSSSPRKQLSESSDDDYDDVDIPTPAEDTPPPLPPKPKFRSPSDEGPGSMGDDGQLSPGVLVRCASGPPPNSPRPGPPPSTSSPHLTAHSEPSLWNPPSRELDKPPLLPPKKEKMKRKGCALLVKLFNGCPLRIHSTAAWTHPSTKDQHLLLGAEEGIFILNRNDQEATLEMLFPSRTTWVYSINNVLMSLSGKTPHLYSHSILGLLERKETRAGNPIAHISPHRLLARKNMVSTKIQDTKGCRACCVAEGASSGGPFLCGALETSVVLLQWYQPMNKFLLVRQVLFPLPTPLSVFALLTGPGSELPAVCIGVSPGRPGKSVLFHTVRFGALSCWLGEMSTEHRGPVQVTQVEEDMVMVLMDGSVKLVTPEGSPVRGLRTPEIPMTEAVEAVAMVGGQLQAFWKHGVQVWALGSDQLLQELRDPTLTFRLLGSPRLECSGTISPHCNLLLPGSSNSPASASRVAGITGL
Chain of Ribosomal protein S6 kinase alpha-3 (P51812 whole entry): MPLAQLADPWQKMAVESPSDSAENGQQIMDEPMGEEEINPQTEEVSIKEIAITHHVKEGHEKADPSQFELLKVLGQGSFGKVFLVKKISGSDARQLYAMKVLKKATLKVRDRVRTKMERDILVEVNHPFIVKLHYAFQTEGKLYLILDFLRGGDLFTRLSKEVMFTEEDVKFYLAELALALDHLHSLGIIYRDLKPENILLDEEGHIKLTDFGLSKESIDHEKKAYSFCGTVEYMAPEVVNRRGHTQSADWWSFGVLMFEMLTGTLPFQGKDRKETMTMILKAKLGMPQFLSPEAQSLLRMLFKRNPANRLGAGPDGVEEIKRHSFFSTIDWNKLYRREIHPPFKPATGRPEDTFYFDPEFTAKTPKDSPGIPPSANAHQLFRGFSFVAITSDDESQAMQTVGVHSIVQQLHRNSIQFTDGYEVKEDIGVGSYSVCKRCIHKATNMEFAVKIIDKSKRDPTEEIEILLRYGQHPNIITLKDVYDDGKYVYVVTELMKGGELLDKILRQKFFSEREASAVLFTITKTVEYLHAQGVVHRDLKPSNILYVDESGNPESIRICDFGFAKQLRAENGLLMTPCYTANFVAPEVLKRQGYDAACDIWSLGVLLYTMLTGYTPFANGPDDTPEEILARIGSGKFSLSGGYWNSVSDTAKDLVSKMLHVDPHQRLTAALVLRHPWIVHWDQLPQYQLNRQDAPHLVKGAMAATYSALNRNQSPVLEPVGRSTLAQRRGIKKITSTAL
Chain of Epithelial discoidin domain-containing receptor 1 (Q08345 whole entry, the tested form may be a part): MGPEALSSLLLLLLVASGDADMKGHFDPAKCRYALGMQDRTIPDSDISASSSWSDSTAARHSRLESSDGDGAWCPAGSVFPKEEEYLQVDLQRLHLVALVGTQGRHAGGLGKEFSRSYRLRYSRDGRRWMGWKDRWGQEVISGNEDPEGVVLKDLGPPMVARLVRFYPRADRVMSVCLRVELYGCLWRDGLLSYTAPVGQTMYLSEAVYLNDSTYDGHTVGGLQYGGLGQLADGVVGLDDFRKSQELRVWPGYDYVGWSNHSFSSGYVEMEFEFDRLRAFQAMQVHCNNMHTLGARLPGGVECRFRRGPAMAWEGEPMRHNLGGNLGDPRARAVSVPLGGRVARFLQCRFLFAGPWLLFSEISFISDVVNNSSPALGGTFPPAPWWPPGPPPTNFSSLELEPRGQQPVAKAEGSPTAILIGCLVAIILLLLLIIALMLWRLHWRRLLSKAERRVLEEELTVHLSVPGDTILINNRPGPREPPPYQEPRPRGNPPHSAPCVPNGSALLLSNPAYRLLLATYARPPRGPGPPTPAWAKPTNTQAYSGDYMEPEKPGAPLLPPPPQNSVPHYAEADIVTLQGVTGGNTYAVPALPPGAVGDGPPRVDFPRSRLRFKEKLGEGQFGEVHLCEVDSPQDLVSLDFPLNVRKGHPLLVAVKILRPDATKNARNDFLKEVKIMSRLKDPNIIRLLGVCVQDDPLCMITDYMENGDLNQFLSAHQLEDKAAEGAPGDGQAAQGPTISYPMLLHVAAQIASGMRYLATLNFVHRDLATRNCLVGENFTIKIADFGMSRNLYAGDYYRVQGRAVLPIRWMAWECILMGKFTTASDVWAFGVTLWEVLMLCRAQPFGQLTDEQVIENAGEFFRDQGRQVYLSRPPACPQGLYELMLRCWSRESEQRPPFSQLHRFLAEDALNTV
Chain of DnaJ homolog subfamily A member 1 (P31689 whole entry): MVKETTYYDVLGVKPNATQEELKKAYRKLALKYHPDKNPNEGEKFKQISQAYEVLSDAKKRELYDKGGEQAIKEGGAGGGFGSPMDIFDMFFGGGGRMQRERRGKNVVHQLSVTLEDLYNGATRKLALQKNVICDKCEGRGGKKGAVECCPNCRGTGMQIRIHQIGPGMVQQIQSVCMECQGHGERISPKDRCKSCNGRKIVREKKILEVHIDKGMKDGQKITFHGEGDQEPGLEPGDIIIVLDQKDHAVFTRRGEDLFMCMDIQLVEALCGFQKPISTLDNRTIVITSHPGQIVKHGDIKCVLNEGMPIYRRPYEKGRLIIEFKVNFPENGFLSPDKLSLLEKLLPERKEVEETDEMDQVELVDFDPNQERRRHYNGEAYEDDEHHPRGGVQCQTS
Chain of Wee1-like protein kinase (P30291 whole entry): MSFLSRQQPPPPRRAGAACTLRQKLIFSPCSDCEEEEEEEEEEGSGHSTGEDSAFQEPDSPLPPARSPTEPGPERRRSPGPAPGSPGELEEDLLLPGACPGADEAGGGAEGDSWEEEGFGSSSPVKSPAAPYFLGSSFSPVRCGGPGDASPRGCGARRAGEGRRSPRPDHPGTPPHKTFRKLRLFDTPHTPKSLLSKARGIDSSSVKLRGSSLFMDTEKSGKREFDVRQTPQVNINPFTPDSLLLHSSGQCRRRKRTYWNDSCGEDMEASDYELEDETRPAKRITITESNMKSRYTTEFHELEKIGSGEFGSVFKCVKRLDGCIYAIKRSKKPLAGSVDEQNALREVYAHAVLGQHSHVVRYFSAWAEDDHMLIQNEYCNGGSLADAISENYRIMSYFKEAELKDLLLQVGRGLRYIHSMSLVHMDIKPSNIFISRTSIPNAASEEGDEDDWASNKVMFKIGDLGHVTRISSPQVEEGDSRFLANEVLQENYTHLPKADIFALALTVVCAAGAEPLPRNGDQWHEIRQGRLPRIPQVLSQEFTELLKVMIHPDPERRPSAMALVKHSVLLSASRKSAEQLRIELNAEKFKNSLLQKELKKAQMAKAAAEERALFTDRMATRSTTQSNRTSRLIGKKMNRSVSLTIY

Compound	Kd [1]	Kd [2]	Kd [3]	Kd [4]	Kd [5]	Kd [6]	Kd [7]	Kd [8]	Kd [9]	Kd [10]	Kd [11]
Cn1cc(-c2cnc3ccc4ccc(CS(=O)(=O)NCc5ccccn5)cc4c(=O)c3c2)cn1 [MK-8033]	> 30 µM (inactive)	> 30 µM (inactive)	> 30 µM (inactive)	> 30 µM (inactive)	> 30 µM (inactive)	> 30 µM (inactive)	> 30 µM (inactive)	> 30 µM (inactive)	> 30 µM (inactive)	> 30 µM (inactive)	–
Cn1cc(C2=C(c3cn(C4CCN(Cc5ccccn5)CC4)c4ccccc34)C(=O)NC2=O)c2ccccc21 [ENZASTAURIN]	–	–	–	–	–	> 30 µM (inactive)	–	–	–	–	> 30 µM (inactive)
CCn1cc(-c2ccnc3[nH]c(-c4cccc(CN(C)C)c4)cc23)c(-c2ccc(NC(=O)N(C)C)cc2)n1 [GSK-1070916]	> 30 µM (inactive)	> 30 µM (inactive)	–	–	0.008 µM (active)	> 30 µM (inactive)	> 30 µM (inactive)	> 30 µM (inactive)	–	> 30 µM (inactive)	–
CC(C)c1cc(CNc2nc(Nc3cc(C4CC4)[nH]n3)cc(N3CCN(C)CC3)n2)on1 [XL-228]	> 30 µM (inactive)	> 30 µM (inactive)	> 30 µM (inactive)	> 30 µM (inactive)	–	> 30 µM (inactive)	> 30 µM (inactive)	0.015 µM (active)	> 30 µM (inactive)	> 30 µM (inactive)	–
O=C(Nc1cc(C(F)(F)F)cc(C(F)(F)F)c1)c1cc(Cl)ccc1O [IMD-0354]	> 30 µM (inactive)	> 30 µM (inactive)	> 30 µM (inactive)	> 30 µM (inactive)	> 30 µM (inactive)	> 30 µM (inactive)	> 30 µM (inactive)	> 30 µM (inactive)	> 30 µM (inactive)	> 30 µM (inactive)	–
Cc1cc(Nc2ncnc3ccc(NC4=NC(C)(C)CO4)cc23)ccc1Oc1ccn2ncnc2c1 [TUCATINIB]	–	> 30 µM (inactive)	> 30 µM (inactive)	–	> 30 µM (inactive)	> 30 µM (inactive)	> 30 µM (inactive)	> 30 µM (inactive)	> 30 µM (inactive)	> 30 µM (inactive)	–
N#CC[C@H](C1CCCC1)n1cc(-c2ncnc3[nH]ccc23)cn1 [RUXOLITINIB]	> 30 µM (inactive)	–	> 30 µM (inactive)	–	–	> 30 µM (inactive)	–	–	–	–	–
CCS(=O)(=O)N1CCN(c2ccc(Nc3ncc(C(N)=O)c(NC4CC4)n3)cc2)CC1 [Cerdulatinib Hydrochloride]	> 30 µM (inactive)	4.86 µM (active)	> 30 µM (inactive)	> 30 µM (inactive)	> 30 µM (inactive)	> 30 µM (inactive)	> 30 µM (inactive)	> 30 µM (inactive)	5.89 µM (active)	> 30 µM (inactive)	–
NC1(c2ccc(-c3nc4ccn5c(=O)[nH]nc5c4cc3-c3ccccc3)cc2)CCC1 [MK-2206]	–	> 30 µM (inactive)	> 30 µM (inactive)	> 30 µM (inactive)	> 30 µM (inactive)	> 30 µM (inactive)	> 30 µM (inactive)	> 30 µM (inactive)	> 30 µM (inactive)	> 30 µM (inactive)	–
CNC(=O)c1nn(C)c2c1C(C)(C)Cc1cnc(Nc3ccc(N4CCN(C)CC4)cc3)nc1-2 [MILCICLIB]	> 30 µM (inactive)	> 30 µM (inactive)	–	0.995 µM (active)	4.17 µM (active)	> 30 µM (inactive)	> 30 µM (inactive)	0.212 µM (active)	> 30 µM (inactive)	0.013 µM (active)	–
Cn1ncc(Cl)c1-c1cc(C(=O)N[C@H](CN)Cc2ccc(F)c(F)c2)oc1Cl [UPROSERTIB]	> 30 µM (inactive)	> 30 µM (inactive)	> 30 µM (inactive)	1.68 µM (active)	> 30 µM (inactive)	> 30 µM (inactive)	> 30 µM (inactive)	–	> 30 µM (inactive)	> 30 µM (inactive)	–
Cc1cccc(-c2nn3c(c2-c2ccnc4ccc(C(N)=O)cc24)CCC3)n1 [GALUNISERTIB]	> 30 µM (inactive)	> 30 µM (inactive)	> 30 µM (inactive)	–	> 30 µM (inactive)	> 30 µM (inactive)	> 30 µM (inactive)	> 30 µM (inactive)	> 30 µM (inactive)	> 30 µM (inactive)	–
Cc1[nH]c(/C=C2\C(=O)Nc3ccccc32)c(C)c1CCC(=O)O [ORANTINIB]	> 30 µM (inactive)	0.019 µM (active)	> 30 µM (inactive)	–	> 30 µM (inactive)	> 30 µM (inactive)	> 30 µM (inactive)	2.02 µM (active)	–	> 30 µM (inactive)	–
Nc1ncnc2c1c(-c1cccc(OCc3ccccc3)c1)cn2[C@H]1C[C@@H](CN2CCC2)C1 [AEW-541]	–	> 30 µM (inactive)	–	–	> 30 µM (inactive)	> 30 µM (inactive)	> 30 µM (inactive)	> 30 µM (inactive)	> 30 µM (inactive)	> 30 µM (inactive)	–
CN1CCN(CCOc2cc(OC3CCOCC3)c3c(Nc4c(Cl)ccc5c4OCO5)ncnc3c2)CC1 [SARACATINIB]	> 30 µM (inactive)	> 30 µM (inactive)	> 30 µM (inactive)	> 30 µM (inactive)	4.4 µM (active)	> 30 µM (inactive)	> 30 µM (inactive)	> 30 µM (inactive)	> 30 µM (inactive)	> 30 µM (inactive)	–
CNC(=O)c1cc(Oc2ccc(NC(=O)Nc3cc(C(C)(C)C)nn3-c3ccc4ncccc4c3)c(F)c2)ccn1 [REBASTINIB]	> 30 µM (inactive)	> 30 µM (inactive)	> 30 µM (inactive)	> 30 µM (inactive)	0.272 µM (active)	> 30 µM (inactive)	> 30 µM (inactive)	0.566 µM (active)	> 30 µM (inactive)	> 30 µM (inactive)	–
C=CC(=O)Nc1cc2c(Nc3ccc(F)c(Cl)c3)ncnc2cc1C#CC(C)(C)N1CCN(C)CC1 [AV-412 FREE BASE]	> 30 µM (inactive)	> 30 µM (inactive)	> 30 µM (inactive)	> 30 µM (inactive)	> 30 µM (inactive)	> 30 µM (inactive)	7.96 µM (active)	> 30 µM (inactive)	> 30 µM (inactive)	> 30 µM (inactive)	–
O=C(NOCCO)c1cc(CN2OCCCC2=O)c(F)c(F)c1Nc1ccc(I)cc1F [RO-4987655]	–	–	> 30 µM (inactive)	–	–	> 30 µM (inactive)	–	–	–	–	> 30 µM (inactive)
FC(F)(F)c1ccc(/C=C/c2nc(COc3ccc(CCCCn4ccnn4)cc3)co2)cc1 [MUBRITINIB]	> 30 µM (inactive)	> 30 µM (inactive)	> 30 µM (inactive)	> 30 µM (inactive)	> 30 µM (inactive)	> 30 µM (inactive)	> 30 µM (inactive)	> 30 µM (inactive)	> 30 µM (inactive)	> 30 µM (inactive)	–
